According to US7053118B1, “Lactone compounds and methods of use” (Harbor Branch Oceanographic Institution, Inc., priority 2003, dated 2006):

Key:
Type in all cases: cell-based
[1] = tested on: P388 murine leukemia cell line; assay: Antiproliferative MTT assay, P388 cell line; details: P-388 cells, 48-h exposure
Protocol: (§1) Extracts and compounds were analyzed as to their effects on proliferation of A549 human adenocarcinoma, PANC-1 human pancreatic and P388 murine leukemia cell lines. P388 cells were obtained from Dr. R. Camalier, National Cancer Institute, Bethesda, Md., and A549 and PANC-1 cells were obtained from American Type Culture Collection, Rockville, Md. All cell lines were maintained in Roswell Park Memorial Institute (RPMI) medium 1640 supplemented with 10% fetal bovine serum. All cell lines are cultured in plastic tissue culture flasks and kept in an incubator at 37° C. in humidified air containing 5% CO2. Prior to testing, antibiotic-free stock cultures of each of the cell lines were subcultured to 10^6 cells/ml by dilution in fresh growth medium at 2 to 3 day intervals.
(§2) To assess the antiproliferative effects of extracts and compounds against the P388 cell line, 200 μl cultures (96-well tissue culture plates, Nunc, Denmark) are established at 1×10^5 cells/ml in drug-free medium or medium containing the test agent at 10.0, 1.0, 0.10 and 0.010 μg/ml. Solvent for all dilutions ethanol. All experimental cultures are initiated in medium containing Gentamycin sulfate (50 μg/ml; Schering Corporation, Kenilworth, N.J.). […]

[2] = tested on: A549 human adenocarcinoma cell line; assay: Antiproliferative MTT assay, A549 cell line; details: A549 cells, additional 48 hr exposure prior to MTT addition
Protocol: as §1
as §2, with “ethanol.” for “ethanol. All experimental cultures are initiated in medium containing Gentamycin sulfate (50 μg/ml; Schering Corporation, Kenilworth, N.J.).”
(§3) Similar procedures are utilized for A549 and PANC-1 cells which require an additional 48 hr exposure prior to MTT addition. Results are expressed as percent inhibition compared to the negative (no drug) control. […]

[3] = tested on: PANC-1 human pancreatic cell line; assay: Antiproliferative MTT assay, PANC-1 cell line; details: PANC-1 cells, additional 48 hr exposure prior to MTT addition
Protocol: as §1
as §2, with “ethanol.” for “ethanol. All experimental cultures are initiated in medium containing Gentamycin sulfate (50 μg/ml; Schering Corporation, Kenilworth, N.J.).”
as §3

SMILES: C=C1C[C@@](C)(/C=C/C=C/CCCCCCCC)OC1=O [plakolide A]
- Activity (IC50 μg/ml) [1]: 1.09 µg/mL
- Activity (IC50 μg/ml) [2]: 5.0 µg/mL
- Activity (IC50 μg/ml) [3]: 3.78 µg/mL
